# Data as given in ChEMBL document CHEMBL5465560, “Selectivity Literature for EUbOPEN Chemogenomic Library” (2024).
# How the values were obtained:
# [1] = target: T1, Histone-arginine methyltransferase CARM1 (Homo sapiens) (UniProt Q86X55); conditions: KMS-27, at 3 µM
# T1 sequence (whole entry): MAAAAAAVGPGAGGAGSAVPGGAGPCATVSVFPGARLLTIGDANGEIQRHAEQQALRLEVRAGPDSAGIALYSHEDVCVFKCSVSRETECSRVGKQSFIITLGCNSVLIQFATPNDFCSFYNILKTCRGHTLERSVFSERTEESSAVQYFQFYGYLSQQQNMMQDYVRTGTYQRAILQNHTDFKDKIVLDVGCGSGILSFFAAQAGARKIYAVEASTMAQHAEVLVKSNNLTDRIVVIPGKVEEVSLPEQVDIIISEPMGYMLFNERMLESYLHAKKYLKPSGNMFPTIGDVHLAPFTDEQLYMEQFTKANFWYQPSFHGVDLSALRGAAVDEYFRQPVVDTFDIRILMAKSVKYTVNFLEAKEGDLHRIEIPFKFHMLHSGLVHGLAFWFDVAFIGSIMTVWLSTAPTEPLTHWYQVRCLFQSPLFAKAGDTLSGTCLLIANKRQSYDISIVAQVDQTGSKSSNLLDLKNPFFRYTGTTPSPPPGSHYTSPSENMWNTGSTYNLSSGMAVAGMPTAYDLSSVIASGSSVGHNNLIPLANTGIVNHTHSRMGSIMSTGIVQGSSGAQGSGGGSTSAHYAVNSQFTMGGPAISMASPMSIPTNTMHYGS
# [2] = target: MAP kinase-interacting serine/threonine-protein kinase 2 (Homo sapiens, UniProt Q9HBH9); assay: Selectivity interaction (LanthaScreen Eu Kinase Binding Assay) EUB0001632a MKNK2; conditions: at 10 µM
# Chain of MAP kinase-interacting serine/threonine-protein kinase 2 (Q9HBH9 whole entry, looked up): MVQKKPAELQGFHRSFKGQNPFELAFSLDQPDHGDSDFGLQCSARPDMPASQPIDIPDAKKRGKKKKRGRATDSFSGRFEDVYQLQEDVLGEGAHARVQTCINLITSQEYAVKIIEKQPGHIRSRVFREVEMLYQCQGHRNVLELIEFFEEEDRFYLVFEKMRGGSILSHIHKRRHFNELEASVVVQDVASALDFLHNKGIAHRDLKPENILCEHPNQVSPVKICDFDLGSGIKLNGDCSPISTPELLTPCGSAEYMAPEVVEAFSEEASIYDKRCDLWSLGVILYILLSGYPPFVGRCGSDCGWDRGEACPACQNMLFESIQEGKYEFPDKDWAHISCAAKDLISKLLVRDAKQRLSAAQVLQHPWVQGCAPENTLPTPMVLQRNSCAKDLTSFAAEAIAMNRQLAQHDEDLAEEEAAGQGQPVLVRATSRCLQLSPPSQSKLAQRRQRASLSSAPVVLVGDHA
# [3] = target: Tyrosine-protein kinase Blk (Homo sapiens) (UniProt P51451); assay: Selectivity interaction (ProQinase) EUB0000171b BLK
# Chain of Tyrosine-protein kinase Blk (Homo sapiens) (P51451 2-505 limits assumed): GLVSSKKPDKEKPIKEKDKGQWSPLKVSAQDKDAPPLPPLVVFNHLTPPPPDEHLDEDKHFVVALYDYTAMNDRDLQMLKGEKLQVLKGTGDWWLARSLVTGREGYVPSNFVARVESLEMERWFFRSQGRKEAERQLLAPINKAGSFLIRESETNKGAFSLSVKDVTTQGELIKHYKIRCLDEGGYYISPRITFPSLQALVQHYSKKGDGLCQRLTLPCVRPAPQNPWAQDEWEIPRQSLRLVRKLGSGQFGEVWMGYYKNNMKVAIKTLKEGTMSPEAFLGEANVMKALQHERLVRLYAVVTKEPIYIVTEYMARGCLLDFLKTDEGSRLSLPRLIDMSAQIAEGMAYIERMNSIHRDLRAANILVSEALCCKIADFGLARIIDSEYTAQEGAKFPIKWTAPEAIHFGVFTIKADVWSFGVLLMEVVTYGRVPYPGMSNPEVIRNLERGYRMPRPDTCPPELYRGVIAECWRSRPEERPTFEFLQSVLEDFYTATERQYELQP
# [4] = target: T2, Ephrin type-A receptor 1 (Homo sapiens) (UniProt P21709); assay: Selectivity interaction (KinomeScan (DiscoverX)) EUB0001619a EPHA1; conditions: at 1 µM
# T2 sequence (whole entry): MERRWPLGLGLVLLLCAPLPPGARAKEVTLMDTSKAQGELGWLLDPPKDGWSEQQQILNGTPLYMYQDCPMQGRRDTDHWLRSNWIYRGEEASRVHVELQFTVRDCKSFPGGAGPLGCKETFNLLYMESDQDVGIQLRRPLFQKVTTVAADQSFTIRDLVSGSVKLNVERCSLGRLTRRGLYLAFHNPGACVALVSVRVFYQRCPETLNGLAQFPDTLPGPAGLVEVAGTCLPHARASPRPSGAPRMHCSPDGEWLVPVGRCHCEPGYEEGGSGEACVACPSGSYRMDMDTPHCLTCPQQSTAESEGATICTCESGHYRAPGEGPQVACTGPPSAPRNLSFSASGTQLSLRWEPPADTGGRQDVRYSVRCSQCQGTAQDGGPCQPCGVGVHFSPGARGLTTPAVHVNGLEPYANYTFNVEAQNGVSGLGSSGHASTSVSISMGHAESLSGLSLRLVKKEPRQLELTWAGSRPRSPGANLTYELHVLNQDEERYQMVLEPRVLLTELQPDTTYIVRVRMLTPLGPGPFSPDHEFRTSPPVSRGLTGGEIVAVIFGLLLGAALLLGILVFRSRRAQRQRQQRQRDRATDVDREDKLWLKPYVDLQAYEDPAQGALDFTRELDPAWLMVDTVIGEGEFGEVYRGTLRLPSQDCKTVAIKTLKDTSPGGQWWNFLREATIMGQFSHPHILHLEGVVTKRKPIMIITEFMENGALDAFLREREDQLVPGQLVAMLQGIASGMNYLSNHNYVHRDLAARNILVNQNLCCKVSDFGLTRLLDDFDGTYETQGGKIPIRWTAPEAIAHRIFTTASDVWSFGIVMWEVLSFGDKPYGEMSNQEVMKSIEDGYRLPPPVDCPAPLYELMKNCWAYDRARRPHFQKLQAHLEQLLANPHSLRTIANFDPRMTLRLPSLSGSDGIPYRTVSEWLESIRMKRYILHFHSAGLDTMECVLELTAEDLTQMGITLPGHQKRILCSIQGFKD
# [5] = target: Serine/threonine-protein kinase WNK3 (Homo sapiens) (UniProt Q9BYP7); assay: Selectivity interaction (KinomeScan (DiscoverX)) EUB0000607a WNK3; conditions: at 10 µM
# Chain of Serine/threonine-protein kinase WNK3 (Homo sapiens) (Q9BYP7 whole entry): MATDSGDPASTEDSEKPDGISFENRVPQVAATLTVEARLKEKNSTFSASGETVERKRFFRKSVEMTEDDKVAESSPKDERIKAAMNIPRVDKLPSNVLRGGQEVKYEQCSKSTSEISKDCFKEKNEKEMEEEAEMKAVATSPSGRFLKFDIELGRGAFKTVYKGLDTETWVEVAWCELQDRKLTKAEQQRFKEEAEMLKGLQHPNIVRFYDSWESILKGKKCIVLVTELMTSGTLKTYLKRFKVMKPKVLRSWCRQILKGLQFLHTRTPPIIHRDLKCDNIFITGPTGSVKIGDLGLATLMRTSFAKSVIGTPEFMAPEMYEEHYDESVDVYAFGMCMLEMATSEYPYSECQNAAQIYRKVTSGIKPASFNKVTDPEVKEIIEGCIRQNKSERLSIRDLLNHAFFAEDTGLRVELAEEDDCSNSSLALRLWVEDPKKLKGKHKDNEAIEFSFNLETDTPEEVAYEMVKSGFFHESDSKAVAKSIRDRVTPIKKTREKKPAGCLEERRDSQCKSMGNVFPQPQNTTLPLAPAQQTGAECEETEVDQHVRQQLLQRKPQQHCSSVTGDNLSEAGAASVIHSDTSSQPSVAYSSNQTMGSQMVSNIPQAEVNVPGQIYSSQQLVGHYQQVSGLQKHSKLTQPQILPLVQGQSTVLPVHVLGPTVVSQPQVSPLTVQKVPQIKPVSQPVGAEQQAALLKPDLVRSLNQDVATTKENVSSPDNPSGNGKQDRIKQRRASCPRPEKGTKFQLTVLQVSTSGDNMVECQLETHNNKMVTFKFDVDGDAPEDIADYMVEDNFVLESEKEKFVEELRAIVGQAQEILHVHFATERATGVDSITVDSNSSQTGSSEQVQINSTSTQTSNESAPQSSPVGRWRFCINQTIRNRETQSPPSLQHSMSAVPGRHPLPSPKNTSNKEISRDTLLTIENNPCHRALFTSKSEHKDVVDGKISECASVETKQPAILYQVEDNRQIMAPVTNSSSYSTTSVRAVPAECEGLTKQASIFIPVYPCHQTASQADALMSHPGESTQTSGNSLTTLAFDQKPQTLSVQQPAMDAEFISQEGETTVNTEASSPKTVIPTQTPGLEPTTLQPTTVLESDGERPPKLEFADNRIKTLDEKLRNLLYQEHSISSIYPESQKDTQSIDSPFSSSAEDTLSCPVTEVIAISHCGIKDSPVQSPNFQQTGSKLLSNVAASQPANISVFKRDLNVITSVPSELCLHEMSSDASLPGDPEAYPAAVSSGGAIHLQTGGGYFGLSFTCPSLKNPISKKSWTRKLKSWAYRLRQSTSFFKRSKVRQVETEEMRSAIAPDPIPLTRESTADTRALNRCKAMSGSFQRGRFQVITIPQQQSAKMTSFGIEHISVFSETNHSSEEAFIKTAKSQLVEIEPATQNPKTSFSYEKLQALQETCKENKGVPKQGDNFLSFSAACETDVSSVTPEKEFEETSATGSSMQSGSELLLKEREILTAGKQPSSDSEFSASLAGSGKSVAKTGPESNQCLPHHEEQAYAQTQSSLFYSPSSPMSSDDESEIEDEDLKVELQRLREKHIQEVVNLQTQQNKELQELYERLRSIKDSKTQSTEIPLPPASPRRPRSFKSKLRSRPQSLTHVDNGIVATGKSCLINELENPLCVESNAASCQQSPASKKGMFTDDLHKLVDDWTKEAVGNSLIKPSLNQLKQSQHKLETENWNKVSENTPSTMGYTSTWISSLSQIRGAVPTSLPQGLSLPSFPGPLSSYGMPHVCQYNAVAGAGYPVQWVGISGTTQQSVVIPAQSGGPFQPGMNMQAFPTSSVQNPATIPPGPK
# [6] = target: T3, Tyrosine-protein kinase JAK3 (Homo sapiens) (UniProt P52333); assay: Selectivity interaction (KinomeScan (DiscoverX)) EUB0000607a JAK3; conditions: at 10 µM
# T3 sequence (whole entry): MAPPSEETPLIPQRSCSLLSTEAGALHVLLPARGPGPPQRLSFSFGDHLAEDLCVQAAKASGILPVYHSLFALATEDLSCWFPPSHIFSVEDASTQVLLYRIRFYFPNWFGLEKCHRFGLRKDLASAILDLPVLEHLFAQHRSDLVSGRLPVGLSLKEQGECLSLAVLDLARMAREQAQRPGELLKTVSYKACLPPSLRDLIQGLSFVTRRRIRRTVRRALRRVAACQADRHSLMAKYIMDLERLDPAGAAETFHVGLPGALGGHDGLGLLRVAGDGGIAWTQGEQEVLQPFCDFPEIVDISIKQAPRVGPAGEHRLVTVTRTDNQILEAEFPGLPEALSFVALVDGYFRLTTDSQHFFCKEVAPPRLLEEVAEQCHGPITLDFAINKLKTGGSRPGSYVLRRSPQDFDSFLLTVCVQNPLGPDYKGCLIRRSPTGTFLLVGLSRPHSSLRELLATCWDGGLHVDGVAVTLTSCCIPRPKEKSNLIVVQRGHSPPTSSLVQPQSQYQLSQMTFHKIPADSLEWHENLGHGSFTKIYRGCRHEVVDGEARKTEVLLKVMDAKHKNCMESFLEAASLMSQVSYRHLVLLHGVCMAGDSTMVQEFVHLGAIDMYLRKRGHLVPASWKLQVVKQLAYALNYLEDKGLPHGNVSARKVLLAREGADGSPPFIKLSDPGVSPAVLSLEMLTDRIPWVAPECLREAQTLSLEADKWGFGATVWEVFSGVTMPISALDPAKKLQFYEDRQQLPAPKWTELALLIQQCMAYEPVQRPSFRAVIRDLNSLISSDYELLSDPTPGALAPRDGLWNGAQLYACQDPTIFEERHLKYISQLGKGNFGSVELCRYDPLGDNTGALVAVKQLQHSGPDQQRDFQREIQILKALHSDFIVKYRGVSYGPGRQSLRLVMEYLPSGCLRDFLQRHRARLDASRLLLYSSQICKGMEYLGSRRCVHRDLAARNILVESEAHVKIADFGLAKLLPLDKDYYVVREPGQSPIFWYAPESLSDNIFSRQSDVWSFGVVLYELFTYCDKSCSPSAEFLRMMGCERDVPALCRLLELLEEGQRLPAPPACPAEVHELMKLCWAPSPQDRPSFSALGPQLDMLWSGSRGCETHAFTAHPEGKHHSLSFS
# [7] = target: STE20-like serine/threonine-protein kinase (Homo sapiens, UniProt Q9H2G2); assay: Selectivity interaction (ActivX KiNativ screen (kinase selectivity in THP-1 cell lysates)) EUB0000639a SLK; type: subcellular; conditions: lysate, at 5 µM
# Chain of STE20-like serine/threonine-protein kinase (Q9H2G2 whole entry, looked up): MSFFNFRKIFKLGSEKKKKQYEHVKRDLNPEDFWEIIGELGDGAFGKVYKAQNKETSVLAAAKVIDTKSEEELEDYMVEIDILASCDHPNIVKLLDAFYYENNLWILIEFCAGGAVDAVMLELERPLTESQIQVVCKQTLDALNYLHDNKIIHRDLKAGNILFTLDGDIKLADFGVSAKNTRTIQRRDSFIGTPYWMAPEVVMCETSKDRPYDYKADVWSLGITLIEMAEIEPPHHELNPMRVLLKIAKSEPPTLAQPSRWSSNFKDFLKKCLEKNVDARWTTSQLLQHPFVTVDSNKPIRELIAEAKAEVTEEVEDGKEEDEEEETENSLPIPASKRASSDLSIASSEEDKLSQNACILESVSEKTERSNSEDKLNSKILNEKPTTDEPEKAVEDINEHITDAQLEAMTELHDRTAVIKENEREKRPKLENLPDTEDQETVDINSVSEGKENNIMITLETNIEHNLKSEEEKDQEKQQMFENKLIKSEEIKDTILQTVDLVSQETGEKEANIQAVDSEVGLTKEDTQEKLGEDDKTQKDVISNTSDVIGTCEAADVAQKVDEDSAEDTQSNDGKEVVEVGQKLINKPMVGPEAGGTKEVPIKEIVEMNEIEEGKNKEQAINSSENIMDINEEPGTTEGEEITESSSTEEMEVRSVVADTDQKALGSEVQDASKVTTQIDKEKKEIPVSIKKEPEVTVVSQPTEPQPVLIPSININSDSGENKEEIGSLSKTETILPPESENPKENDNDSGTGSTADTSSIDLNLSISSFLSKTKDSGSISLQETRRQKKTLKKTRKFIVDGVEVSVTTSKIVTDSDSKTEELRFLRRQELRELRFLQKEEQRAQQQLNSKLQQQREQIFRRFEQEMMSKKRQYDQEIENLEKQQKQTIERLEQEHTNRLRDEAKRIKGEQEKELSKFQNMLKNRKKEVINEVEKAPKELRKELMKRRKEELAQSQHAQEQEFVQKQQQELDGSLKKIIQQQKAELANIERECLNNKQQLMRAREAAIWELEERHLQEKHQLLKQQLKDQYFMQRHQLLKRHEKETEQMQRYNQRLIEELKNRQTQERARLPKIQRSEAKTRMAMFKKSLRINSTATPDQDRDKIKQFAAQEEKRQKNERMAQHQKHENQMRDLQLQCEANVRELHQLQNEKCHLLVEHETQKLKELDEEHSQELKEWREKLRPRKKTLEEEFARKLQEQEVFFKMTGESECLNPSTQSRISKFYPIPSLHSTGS
structure (smiles),measurement,setting,value
CNCCN1CCC(c2cc(CN(C)C(=O)c3cccc(Oc4ccccc4)c3)ccn2)CC1,% of growth rate,[1],-17.2%
Cn1cc(-n2cnc3c(NCc4nc5cc(Cl)c(Cl)cc5[nH]4)nc(N4CCOCC4)nc32)cn1,% of inhibition,[2],-36%
C=CC(=O)Nc1cccc(C(=O)Nc2ccc(Nc3cc(-c4[nH]c(SC)nc4C)ccn3)cc2)c1,% of control,[3]; at 1 µM,77%
same,% of control,[3]; at 5 µM,81%
N#Cc1cccc(-c2c[nH]c3ncnc(N4CCOCC4)c23)c1,% of control,[4],100%
CNC(=O)Nc1ccc(-c2nc(N3CC4CCC(C3)O4)c3cnn(C4CCC5(CC4)OCCO5)c3n2)cc1,% of control,[5],100%
same,% of control,[6],90%
CC[C@@H]1[C@H](F)C(=O)N[C@@H]1COc1nccc2cc(C(N)=O)c(OC)cc12 [ZIMLOVISERTIB],% of inhibition,[7],-0.8%
